The source of these data is patent US20240197664A1, “SIRTUIN OR KLOTHO ACTIVATOR OR EXPRESSION ENHANCER, NAD+ INCREASING AGENT, AND SENOLYTIC AGENT” (WAKUNAGA PHARMACEUTICAL CO., LTD., priority 2021, published 2024).

Structures are written as SMILES.

In one assay the target is T1, SIRT1 (Mus musculus, UniProt Q923E4).
T1 construct: from tissue; host or cells: cerebral cortex of SAMP8 mice
T1 sequence (Q923E4 1-737): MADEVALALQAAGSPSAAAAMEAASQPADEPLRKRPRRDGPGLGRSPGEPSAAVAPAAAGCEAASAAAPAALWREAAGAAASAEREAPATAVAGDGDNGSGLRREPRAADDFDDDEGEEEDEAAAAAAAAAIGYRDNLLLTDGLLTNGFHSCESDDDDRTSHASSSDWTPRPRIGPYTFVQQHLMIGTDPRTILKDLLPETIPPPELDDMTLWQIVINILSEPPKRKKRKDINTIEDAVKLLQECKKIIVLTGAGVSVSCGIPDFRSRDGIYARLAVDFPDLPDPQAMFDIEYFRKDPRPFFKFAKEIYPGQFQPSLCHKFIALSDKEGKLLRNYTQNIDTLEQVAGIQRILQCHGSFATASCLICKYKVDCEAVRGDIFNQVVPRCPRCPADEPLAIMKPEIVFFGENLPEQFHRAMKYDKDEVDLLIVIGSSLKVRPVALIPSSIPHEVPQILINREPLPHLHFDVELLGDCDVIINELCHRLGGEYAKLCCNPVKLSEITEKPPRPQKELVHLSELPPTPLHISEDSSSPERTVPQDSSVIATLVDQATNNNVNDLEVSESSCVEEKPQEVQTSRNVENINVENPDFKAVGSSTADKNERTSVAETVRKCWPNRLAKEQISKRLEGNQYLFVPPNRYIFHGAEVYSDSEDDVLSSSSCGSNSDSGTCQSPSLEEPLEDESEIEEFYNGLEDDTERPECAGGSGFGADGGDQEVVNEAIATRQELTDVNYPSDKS
Description: SIRT1 activation action (in vivo), SIRT1_GLO kit on cerebral cortex lysate. More on the design: species or system senescence-accelerated mice SAMP8. The following applies: single oral dose, 180 minutes after administration, vs control group. As to the method:
(§1) Animals for evaluating the biological activity were bred as follows. Senescence-accelerated mice SAMP8 (male) for testing were purchased from Japan SLC, Inc. After purchase, the animals were acclimatized for one week and used as animals for the evaluation tests.
A SIRT1_GLO kit manufactured by Promega Corporation was purchased to measure the sirtuins activity. A lysate of the cerebral cortex was placed in a 96-well plate, various reaction reagents were added, and then luminous intensity of luciferase was measured by a plate reader.
A single dose of the sample prepared in the above (1) (a) was orally administrated to animals for the evaluation tests in the above (2), and then cerebral cortices of such animals were extracted 15, 30, 60, and 180 minutes later. The cerebral cortices were crushed using an automatic tissue crusher and lysed by adding a cell dissolution liquid. Centrifugation was performed and the sirtuins activity in the supernatant thereof was measured.

The test system of a further assay is SIRT1 protein. The assay is described as follows: SIRT1 protein increasing action (in vivo), Western Blotting of hippocampus. More on the design: species or system senescence-accelerated mice SAMP8. The settings on record: repeated oral administration for two weeks.
Description: as §1
(§2) After repeated oral administration of the sample prepared in the above (1) (a) to animals for the evaluation tests in the above (2) for two weeks, hippocampi of such animals were excised. After the hippocampi were crushed using an automatic tissue crusher, the cells were lysed with a RIPA cell lysis buffer manufactured by Millipore Corporation which was diluted 10-fold with purified water added with combined protease/phosphatase inhibitors manufactured by Thermo Fisher Scientific K.K., and then centrifuged (10,000 rpm, 10 min, 4° C.), and the supernatant was used as a cell extract. The cell extract was used for analysis by Western Blotting according to a conventional method. An anti-SIRT1 antibody (manufactured by Biolegend) and an anti-β-actin antibody (manufactured by Fujifilm Wako Pure Chemical Corporation) were used as antibodies.

A further assay has as its system NAD+. The assay is described as follows: NAD+ amount increasing action (in vivo), NAD+/NADH Assay Kit. The settings on record: single oral dose (180 minutes later) and mixed with food for one month; cerebral cortices. Also noted: species or system senescence-accelerated mice SAMP8. As to the method: as §1
A single dose of the sample prepared in (1) (a) was orally administered to animals for the evaluation tests in the above (2), and then cerebral cortices of such animals were excised 180 minutes later. In addition, the sample prepared in the above (1) (a) was mixed with food and fed to animals for the evaluation tests in the above (2) for one month, and then cerebral cortices of such animals were excised. The NAD^+ amount in the cerebral cortices was measured using NAD^+/NADH Assay Kit manufactured by Dojindo Laboratories.

The test system of a further assay is p53 protein. The assay is described as follows: Suppression of cellular senescence marker p53 protein in the hippocampus (in vivo), Western Blotting. Also noted: species or system senescence-accelerated mice SAMP8. The settings on record: repeated oral administration for six weeks.
Description: as §1
as §2, with “six” for “two”, “a protease inhibitor and a phosphatase inhibitor” for “combined protease/phosphatase inhibitors”, “Roche,” for “Thermo Fisher Scientific K.K.,”, “anti-p53” for “anti-SIRT1”, “Proteintech Group, Inc.)” for “Biolegend)”, “Medical and Biological Laboratories Co., Ltd.)” for “Fujifilm Wako Pure Chemical Corporation)”
(A western blot detects proteins with antibodies after separation by electrophoresis.)

Another assay relates to SIRT1 gene. The assay is described as follows: Enhancement of SIRT1 gene expression in the kidney (in vivo), real-time PCR. Also noted: species or system senescence-accelerated mice SAMP8. The settings on record: repeated oral administration for two weeks.
Description: as §1
(§3) After repeated oral administration of the sample prepared in the above (1) (a) to the animals for the evaluation tests in the above (2) for two weeks, kidneys of such animals were excised. The kidneys were crushed using an automatic tissue crusher, and then RNA was extracted using a TRIzol solution manufactured by Thermo Fisher Scientific K.K. cDNA was synthesized using PRIMEScript RT reagent Kit with gEraser manufactured by Takara. The synthesized cDNA was subjected to real-time PCR using KAPA SYBR Fast qPCR kit manufactured by Nippon Genetics Co., Ltd. Results are shown in FIG. 5.
On the technique in general: Real-time PCR tracks product formation cycle by cycle.

The subject of another assay is Klotho gene. Description: Enhancement of Klotho gene expression in the kidney (in vivo), real-time PCR. More on the design: species or system senescence-accelerated mice SAMP8. The following applies: repeated oral administration for two weeks.
Description: as §1, §3

The next assay deals with p16 gene. Description: Suppression of senescent cell marker p16 gene expression in the kidney (in vivo), real-time PCR. Also noted: species or system senescence-accelerated mice SAMP8. The settings on record: repeated oral administration for two weeks.
Description: as §1
(§4) After repeated oral administration of the sample prepared in the above (1) (a) to the animals for the evaluation tests in the above (2) for two weeks, kidneys of such animals were excised. The kidneys were crushed using an automatic tissue crusher, and then RNA was extracted using a TRIzol solution manufactured by Thermo Fisher Scientific K.K.
(§5) CDNA was synthesized using PRIMEScript RT reagent Kit with gEraser manufactured by Takara. The synthesized cDNA was subjected to real-time PCR using KAPA SYBR Fast qPCR kit manufactured by Nippon Genetics Co., Ltd. Results are shown in FIG. 6.

A further assay concerns p21 gene. The assay is described as follows: Suppression of senescent cell marker p21 gene expression in the kidney (in vivo), real-time PCR. Also noted: species or system senescence-accelerated mice SAMP8. The settings on record: repeated oral administration for two weeks.
Description: as §1, §4, §5

In assay [1] the test system is kidney injury molecule (KIM-1). Description: Inhibitory action on kidney injuries (in vivo), KIM-1 Western Blotting. The settings on record: repeated oral administration for two weeks. Also noted: species or system senescence-accelerated mice SAMP8.
Description: as §1
(§6) After repeated oral administration of the sample prepared in the above (1) (a) to the animals for the evaluation tests in the above (2) for two weeks, kidneys of such animals were excised. After the kidneys were crushed using an automatic tissue crusher, the cells were lysed with an RIPA cell lysis buffer manufactured by Millipore Corporation which was diluted 10-fold with purified water added with a protease inhibitor and a phosphatase inhibitor manufactured by Roche and then centrifuged (10,000 rpm, 10 min, 4° C.), and the supernatant was used as a cell extract. The cell extract was used for analysis by Western Blotting according to a conventional method. A kidney injury molecule (KIM-1) antibody (manufactured by R&D System) and a lipocalin-2 (NGAL) antibody (manufactured by Proteintech Group, Inc.), KIM-1 and NGAL being markers of kidney injuries, and an anti-GAPDH antibody (manufactured by Fujifilm Wako Pure Chemical Corporation) were used as antibodies.

A further assay deals with lipocalin-2 (NGAL). The assay is described as follows: Inhibitory action on kidney injuries (in vivo), NGAL Western Blotting. The settings on record: repeated oral administration for two weeks. Also noted: species or system senescence-accelerated mice SAMP8.
Description: as §1, §6

The subject of assay [2] is senescence-accelerated mice SAMP8. Description: Cognitive/memory retention action (in vivo), passive avoidance test. The settings on record: mixed with food for four months, holding trial after two months. As to the method: as §1
The sample prepared in the above (1) (a) was mixed with food and fed to animals for evaluation test in the above (2) for four months, and then a passive avoidance test was performed. The passive avoidance test is a test utilizing a habit that a mouse prefers a dark place, and on Day 1, a mouse already in a bright room was moved to a dark room while receiving an electrical shock (50 V/1 second), and the time it took for the mouse to enter the dark room was taken as response latency of an acquisition trial. After two months, the mouse was put in the bright room again and the time it took to move to the dark room (the response latency of a holding trial) was used as an index of memory.

For `CC=CSCC(N)C(=O)O` (centres unmarked) [S-1-propenylcysteine], the “Sirtuin activity in cerebral cortex” value on SIRT1 was “increased”. Further, the “SIRT1 protein mass in the hippocampus” value with SIRT1 protein was “increased”. Also, the “NAD+ amount” value with NAD+ is listed as “increased”. Besides, the “p53 protein mass in the hippocampus” value with p53 protein was “reduced”. For the same compound, the “expression of SIRT1 gene in the kidney” value in the assay on SIRT1 gene is given as “increased”. Also, the “expression of Klotho gene in the kidney” value in the assay on Klotho gene is given as “increased”. Moreover, in the assay on p16 gene, the “cells expressing p16 gene in the kidneys” value is listed as “reduced”. Moreover, the “cells expressing p21 gene in the kidneys” value in the assay with p21 gene is “reduced”. In assay [1], the “KIM-1 protein mass in the kidney” value is recorded as “reduced”. Also, the “NGAL protein mass in the kidney” value in the assay with lipocalin-2 (NGAL) is “reduced”. In [2], the “aging-related decline in cognitive and memory functions (response latency of holding trial)” value is given as “ameliorated”.
